Measured values as given in publication PMC2664092 (Biochemistry, 2008).

Molecular target: T1, LpxL (Escherichia coli, UniProt P0ACV0)
T1 sequence (P0ACV0 1-306): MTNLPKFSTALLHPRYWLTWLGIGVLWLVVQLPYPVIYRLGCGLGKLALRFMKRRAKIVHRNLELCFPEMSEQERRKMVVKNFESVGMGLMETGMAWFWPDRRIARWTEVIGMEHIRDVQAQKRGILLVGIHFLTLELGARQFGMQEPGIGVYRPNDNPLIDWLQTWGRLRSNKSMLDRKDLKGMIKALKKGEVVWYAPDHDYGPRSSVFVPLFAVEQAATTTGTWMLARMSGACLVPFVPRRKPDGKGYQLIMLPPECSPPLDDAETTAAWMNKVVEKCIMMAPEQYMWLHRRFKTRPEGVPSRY
Experiment: […] TLC acyltransferase assay, PhosphorImager
Format: biochemical
Conditions: read-out: apparent KM; 90 µM lauroyl-ACP (saturating); 0.1% Triton X-100, 0.1 mg/mL BSA, 5 mM MgCl2, 50 mM NaCl, 50 mM HEPES pH 7.5; 30 °C (standard assay); labelled compound

`CCCCCCCCCCC[C@@H](O)CC(=O)N[C@H]1[C@H](OC[C@H]2O[C@H](OP(=O)(O)O)[C@H](NC(=O)C[C@H](O)CCCCCCCCCCC)[C@@H](OC(=O)C[C@H](O)CCCCCCCCCCC)[C@@H]2O)O[C@H](CO[C@]2(C(=O)O)C[C@@H](O[C@]3(C(=O)O)C[C@@H](O)[C@@H](O)[C@@H]([C@H](O)CO)O3)[C@@H](O)[C@@H]([C@H](O)CO)O2)[C@@H](OP(=O)(O)O)[C@@H]1OC(=O)C[C@H](O)CCCCCCCCCCC` [Kdo2-lipid IVA] gave a Km of 15 ± 3 µM.
